# Data taken from publication PMC5371824, “Phosphatidylinositol (4,5)-bisphosphate dynamically regulates the K2P background K^+ channel TASK-2” (Scientific Reports, 2017).
# “Also recorded” adds a separate entry of the source. Where two headings read alike, the source gives them in different places.
# Tests used:
# [1] = biological target: T1, TASK-2 (Mus musculus, UniProt F6V9U5); assay: Excised inside-out patch recording from HEK-293 cells over-expressing TASK-2; type: biochemical; settings: for Inhibition of TASK-2 activity by polycation PI scavengers: in the presence of intracellular ATP
# T1 construct: expressed in transfected cells; host or cells: HEK-293
# T1 sequence (F6V9U5 1-502): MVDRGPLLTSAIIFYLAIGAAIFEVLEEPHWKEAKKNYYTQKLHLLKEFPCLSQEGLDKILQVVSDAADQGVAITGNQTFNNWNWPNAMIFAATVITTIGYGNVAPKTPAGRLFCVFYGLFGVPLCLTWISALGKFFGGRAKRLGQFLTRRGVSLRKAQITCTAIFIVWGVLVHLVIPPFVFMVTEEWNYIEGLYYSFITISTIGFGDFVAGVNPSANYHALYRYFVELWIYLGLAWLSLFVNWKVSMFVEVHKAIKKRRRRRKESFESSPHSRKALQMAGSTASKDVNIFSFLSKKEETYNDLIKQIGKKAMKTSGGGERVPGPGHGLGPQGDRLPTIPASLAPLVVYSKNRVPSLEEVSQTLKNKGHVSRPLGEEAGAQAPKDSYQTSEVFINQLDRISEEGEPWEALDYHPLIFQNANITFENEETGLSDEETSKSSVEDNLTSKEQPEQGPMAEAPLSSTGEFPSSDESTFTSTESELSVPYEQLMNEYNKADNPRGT
# [2] = system: TASK-2 expressed with angiotensin II AT1 receptors; assay: Whole-cell current in HEK-293 cells co-transfected with AT1 and TASK-2; type: cell-based, Mus musculus; settings: 1 μM, pulses to 0 mV from -75 mV
# Protocol: Transiently transfected HEK-293 cells in 35 mm Petri dishes were transferred to the stage of an inverted microscope for study. There they were continuously superfused with a bathing solution containing (in mM): 67.5 Na2SO4, 4 KCl, 1 K gluconate, 2 CaCl2, 1 MgCl2, 105 sucrose, and 10 Hepes/Tris (pH 7.5) (standard solution). […] All our whole-cell experiments keep both intra- and extracellular chloride at 10 mM and although currents were measured at several potentials, data mostly reported are those obtained at 0 mV. […]
# [3] = system: TASK-2-K257A-K258A; assay: Whole-cell current in HEK-293 cells co-transfected with AT1 and TASK-2-K257A-K258A; type: cell-based, Mus musculus; settings: 1 μM, pulses to 0 mV from -75 mV, Gβγ-insensitive mutant
# Protocol: Figure 3 Gq protein coupled receptor inhibition of TASK-2 and minor effect of diacylglycerol. (A) Effect of activation of the angiotensin II receptor AT1 on TASK-2-mediated currents. HEK-293 cells were co-transfected with AT1 and TASK-2, or the TASK-2-K257A-K258A mutant. Current was monitored by brief pulses to 0 mV from a holding potential of −75 mV. Angiotensin II at a concentration of 1 μM was added during the indicated time. Results are means ± SEM of 6 experiments for TASK-2 and 4 experiments for TASK-2-K257A-K258A. (B) Effect of a diacylglycerol analogue assayed on TASK-2- and TASK-3-expressing cells. Current was monitored by brief pulses to 0 mV from a holding potential of −75 mV. The box labelled DAG indicates the addition of diacylglycerol short-chain analogue 1,2-dioctanoyl-sn-glycerol at 100 nM. Results are means ± SEM of 5 experiments for TASK-2 and 8 experiments for TASK-3.
# Mus musculus TASK-2 (GenBank accession No. AF319542) plasmid was that obtained from mouse kidney. The cDNAs was subcloned into the pCR3.1 vector. […]
# Transiently transfected HEK-293 cells in 35 mm Petri dishes were transferred to the stage of an inverted microscope for study. […] All our whole-cell experiments keep both intra- and extracellular chloride at 10 mM and although currents were measured at several potentials, data mostly reported are those obtained at 0 mV. […]
# [4] = biological target: T1, TASK-2; assay: Whole-cell patch-clamp of HEK-293 cells expressing TASK-2; type: cell-based; settings: whole-cell, 1 mM intracellular ATP, 0 mV
# Protocol: (§1) Mus musculus TASK-2 (GenBank accession No. AF319542) plasmid was that obtained from mouse kidney. The cDNAs was subcloned into the pCR3.1 vector. Mutations were made by site-directed mutagenesis into the pCR3.1 vector as previously described[69] and confirmed by sequencing. HEK-293 cells were cultured in Dulbecco’s modified Eagle’s medium (DMEM) and F12 Ham’s medium at a 1:1 ratio and supplemented with 10% fetal calf serum at 37 °C in 5% CO2. For electrophysiological experiments, transient transfections were performed by electroporation, using CD8 cotransfection to identify effectively transfected cells. […] Experiments were performed 4–8 h after electroporation. In experiments with the voltage-sensitive phosphatase TASK-2 or its mutants were co-electroporated with a pCR3.1-DrVSP-IRES-CD8 vector.
# Transiently transfected HEK-293 cells in 35 mm Petri dishes were transferred to the stage of an inverted microscope for study. There they were continuously superfused with a bathing solution containing (in mM): 67.5 Na2SO4, 4 KCl, 1 K gluconate, 2 CaCl2, 1 MgCl2, 105 sucrose, and 10 Hepes/Tris (pH 7.5) (standard solution). A high K^+ solution was obtained by equimolar replacement of Na^+ by K^+. The pipette solution contained (mM) 8 KCl, 132 potassium gluconate, 1 MgCl2, 10 EGTA, 1 Na3ATP, 0.1 GTP, 10 HEPES/Tris, pH 7.4. Standard whole-cell, patch-clamp recordings were performed as described elsewhere. All our whole-cell experiments keep both intra- and extracellular chloride at 10 mM and although currents were measured at several potentials, data mostly reported are those obtained at 0 mV. Potentials were corrected for liquid junction shifts. Acquisition and analysis was done with Clampfit 9.0 (Axon Instruments, Foster City, CA, USA). Further data analysis was done using the curve fitting features of SigmaPlot v. 12 (Systat Software Inc., San Jose, CA, USA).
# [5] = system: Kir4.1/Kir5.1; parameters: method as in PMID 18690035; settings: read-out: neomycin IC50; cited from earlier work
# [6] = system: TASK-2-R438C; assay: Excised inside-out patch recording, TASK-2-R438C mutant; type: biochemical, Mus musculus; parameters: key to Neomycin inhibition: ✓ under Neomycin inhibition indicates a significantly lower IC50 for inhibition by neomycin compared to control; — in all cases stands for no significant effect
# Protocol: as §1
# Recordings in the inside-out isolated patch configuration were performed in the gap-free mode at −60 mV. The inside aspect of the patch was bathed with a solution containing in mM: 10 KCl, 10 Glucose, 1 MgCl2, 10 EGTA, 1 Na3ATP, 0.1 GTP, 6.8 g/100 ml Sucrose, 10 Hepes/Tris, pH 7.4. The pipette contained in mM: 140 KCl, 10 Glucose, 6.8 g/100 ml Sucrose, 10 Hepes/Tris pH 7.4. For isolated patches, borosilicate capillaries (Harvard Apparatus GC150F-10 1.5 ODx0.86 ID) were fire polished to 4–5 MΩ and covered in beeswax. Acquisition was at 10 kHz with filter at 3 kHz (4-pole Bessel) and analysis was done with Clampfit 9.0 (Axon Instruments, Foster City, CA, USA). Traces shown are prints from crude Clampfit screen shots and quantification was done using the average currents were calculated at intervals using Clampfit after baseline adjustment.
# Fig. S7. Concentration ependence for the inhibition of TASK-2 mutant R438C by
# intracellular neomycin. Recording were obtained from excised inside-out patches of
# membrane taken from a HEK-293 cells over-expressing TASK-2-R438C. The patches were
# held at -60 mV in the presence of 1 mM intracellular ATP. Neomycin was increased
# stepwise from 5 to 500 µM in the solution bathing the intracellular aspect of the membrane. […]
molecule,measurement,setting,value
"CCCCCCCC(=O)OC[C@H](COP(=O)(O)O[C@H]1[C@H](O)[C@@H](O)[C@H](OP(=O)(O)O)[C@@H](O)[C@H]1O)OC(=O)CCCCCCC [PI(4)P, phosphatidylinositol 4-monophosphate diC8]",Effect of readmitted ATP relative to the maximal effect elicited by the PIP,"[1]; 1 mM ATP added after PIP, inside-out patches, Fig. S3",5.6 fold
same,Stimulating effect on TASK-2-mediated currents after run-down,"[1]; diC8 PIP added to inside-out excised patches, absence of ATP",quite small; also recorded: rather weak
same,Maximal fold effect on TASK-2 current (normalised to current in absence of PIP),"[1]; diC8 PIP, inside-out patch, -60 mV, absence of ATP, from fits, means ± SEM",1.4 ± 0.4 fold
same,EC50,"[1]; diC8 PIP, inside-out patch, -60 mV, absence of ATP, from fits, means ± SEM, read-out: K0.5 (EC50) for activation of TASK-2 current",50.6 ± 1.3 µM
same,Hill coefficient nH of dose response curve,"[1]; diC8 PIP, inside-out patch, absence of ATP",2
"CCCCC[N+](CCCCC)(CCCCC)CCCCC [TPeA, tetrapentyl ammonium]",IC50,[1],~2 µM
"angiotensin II (DRVYIHPF; Angiotensin-2; UniProt P01019 25-32, looked up) [agonist of the Gq-coupled angiotensin II AT1 receptor]",Effect on TASK-2-mediated current via AT1 receptor,[2],markedly inhibited
same,"Effect on TASK-2-K257A-K258A current via AT1, compared with TASK-2",[3],not significantly different
neomycin,Inhibition of TASK-2 activity in excised inside-out patches,"[1]; 300 μM, -60 mV, 1 mM intracellular ATP",strongly inhibited
same,IC50,"[1]; WT TASK-2, inside-out patch, -60 mV, 1 mM intracellular ATP, neomycin 5 to 500 μM intracellular, mean ± SEM, n = 4, read-out: IC50 for neomycin inhibition of TASK-2 current",~20 µM
same,IC50,"[1]; WT TASK-2, inside-out patch, graded intracellular neomycin, mean ± SEM, four experiments, unit inferred, read-out: IC50 for neomycin inhibition of TASK-2 current",23.4 ± 2.7 µM
same,Inhibition of TASK-2 activity by polycation PI scavengers,[1],inhibit TASK-2 activity
same,Inhibition of TASK-2 activity by intracellular neomycin,[4]; 100 μM in pipette,intermediate effect
same,Inhibition of TASK-2 activity by intracellular neomycin,[4]; 200 μM in pipette,near maximum effect
same,IC50,[5],110 µM
same,IC50,"[6]; inside-out patch, -60 mV, 1 mM intracellular ATP, neomycin 5 to 500 µM, mean ± SEM, n=4, read-out: IC50 for neomycin inhibition of TASK-2-R438C current",8.9 ± 1.5 µM
same,Neomycin inhibition,"[6]; mutation R438C, IC50 compared to WT TASK-2",✓
poly-lysine,Inhibition of TASK-2 activity by polycation PI scavengers,[1],inhibit TASK-2 activity
